Laboratory results published in patent US11040981B2, “Pyrrolotriazine compounds and methods of inhibiting TAM kinases” (Syros Pharmaceuticals, Inc., priority 2017, dated 2021).

Experiments:
TYRO3 = target: T1, TYRO3 (Homo sapiens, UniProt Q06418); test: TR-FRET kinase activity assay, TYRO3; assay type: biochemical; conditions: ATP at Km, 60 minutes
T1 sequence (Q06418 41-890): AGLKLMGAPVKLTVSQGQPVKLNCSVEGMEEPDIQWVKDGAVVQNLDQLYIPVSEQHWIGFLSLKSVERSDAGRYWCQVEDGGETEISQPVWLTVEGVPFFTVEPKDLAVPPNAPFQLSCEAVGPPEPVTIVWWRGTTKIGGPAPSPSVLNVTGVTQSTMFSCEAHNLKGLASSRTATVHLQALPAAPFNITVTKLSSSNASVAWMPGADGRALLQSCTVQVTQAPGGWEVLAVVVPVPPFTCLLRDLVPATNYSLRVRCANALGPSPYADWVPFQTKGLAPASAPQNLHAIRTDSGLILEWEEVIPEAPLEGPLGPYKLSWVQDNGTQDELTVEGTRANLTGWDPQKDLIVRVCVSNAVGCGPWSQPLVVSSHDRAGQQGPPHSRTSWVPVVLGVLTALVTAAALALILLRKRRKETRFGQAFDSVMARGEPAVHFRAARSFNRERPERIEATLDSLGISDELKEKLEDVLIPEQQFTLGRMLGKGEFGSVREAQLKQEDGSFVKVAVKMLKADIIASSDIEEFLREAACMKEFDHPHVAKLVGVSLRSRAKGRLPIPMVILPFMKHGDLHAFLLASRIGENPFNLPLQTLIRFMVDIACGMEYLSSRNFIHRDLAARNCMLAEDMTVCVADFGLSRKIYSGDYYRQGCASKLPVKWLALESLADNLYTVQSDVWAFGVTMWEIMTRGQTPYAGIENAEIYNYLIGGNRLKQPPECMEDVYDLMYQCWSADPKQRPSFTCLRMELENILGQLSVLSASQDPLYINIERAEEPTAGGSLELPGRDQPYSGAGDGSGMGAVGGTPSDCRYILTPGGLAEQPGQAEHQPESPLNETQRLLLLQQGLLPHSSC
How it was run: (§1)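 Compounds were tested against each kinase with ATP set at its own Km and a labelled tyrosine peptide substrate. Following one hour at room temperature in buffer containing 10 mM MgCl2 and 1 mM DTT, phosphorylated product was detected by Europium antibody TR-FRET after EDTA quench, and IC50 values were calculated.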

AXL = target: T2, AXL (Homo sapiens, UniProt P30530); test: TR-FRET kinase activity assay, AXL; assay type: biochemical; conditions: ATP at Km, 60 minutes
T2 sequence (P30530 26-894): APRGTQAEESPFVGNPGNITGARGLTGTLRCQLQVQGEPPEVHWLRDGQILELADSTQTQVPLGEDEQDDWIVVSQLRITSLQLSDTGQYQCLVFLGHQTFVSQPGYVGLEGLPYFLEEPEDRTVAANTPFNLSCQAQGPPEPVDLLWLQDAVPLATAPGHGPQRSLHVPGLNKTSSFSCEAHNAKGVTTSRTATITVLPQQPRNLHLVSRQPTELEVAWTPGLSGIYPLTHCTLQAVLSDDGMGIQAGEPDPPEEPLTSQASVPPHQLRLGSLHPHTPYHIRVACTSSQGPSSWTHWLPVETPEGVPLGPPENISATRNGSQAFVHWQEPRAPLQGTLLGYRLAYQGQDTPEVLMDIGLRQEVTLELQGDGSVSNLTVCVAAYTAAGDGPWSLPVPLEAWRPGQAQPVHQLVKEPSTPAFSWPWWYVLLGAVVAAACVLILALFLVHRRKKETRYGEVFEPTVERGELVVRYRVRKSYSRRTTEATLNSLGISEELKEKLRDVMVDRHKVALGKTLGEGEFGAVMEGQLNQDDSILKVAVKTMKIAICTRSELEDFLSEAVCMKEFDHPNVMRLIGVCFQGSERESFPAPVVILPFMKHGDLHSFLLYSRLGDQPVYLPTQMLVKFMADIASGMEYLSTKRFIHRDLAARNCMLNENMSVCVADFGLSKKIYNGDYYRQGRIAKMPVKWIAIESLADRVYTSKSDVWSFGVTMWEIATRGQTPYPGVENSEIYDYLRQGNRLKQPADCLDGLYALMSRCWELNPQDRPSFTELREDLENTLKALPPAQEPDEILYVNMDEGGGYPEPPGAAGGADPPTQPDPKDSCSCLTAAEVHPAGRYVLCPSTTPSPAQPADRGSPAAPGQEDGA
How it was run: as §1

Row | Structure (SMILES) | IC50 (TYRO3) | IC50 (AXL)
1 | COC[C@H](C)Nc1ncc2c(-c3ccnc(O[C@@H]4CCCN(C)C4)c3)cc([C@H]3CC[C@H](O)CC3)n2n1 [Compound 404] | ≤ 100 nM | ≤ 100 nM
2 | COC[C@H](C)Nc1ncc2c([C@H]3CCN(S(C)(=O)=O)C3)cc([C@H]3CC[C@H](O)CC3)n2n1 [Compound 376] | ≤ 100 nM | 100 to 1000 nM
3 | COC[C@H](C)Nc1ncc2c(-c3ccnc(O[C@@H]4CCCNC4)c3)cc([C@H]3CC[C@H](O)CC3)n2n1 [Compound 390] | ≤ 100 nM | ≤ 100 nM
4 | C[C@@H](CC(F)(F)F)Nc1ncc2c(-c3ccnc(N4CCOCC4)c3)cc([C@H]3CC[C@H](O)CC3)n2n1 [Compound 346] | ≤ 100 nM | ≤ 100 nM
5 | COC[C@H](C)Nc1ncc2c([C@@H]3CCCN(c4ccnc(C)n4)C3)cc([C@H]3CC[C@H](O)CC3)n2n1 [Compound 378] | 100 to 1000 nM | 1000 to 10000 nM
6 | COC[C@H](C)Nc1ncc2c(-c3ccnc(O[C@H]4CCCN(C)C4)c3)cc([C@H]3CC[C@H](O)CC3)n2n1 [Compound 403] | ≤ 100 nM | ≤ 100 nM
7 | COC[C@H](C)Nc1ncc2c(-c3cnn(C(C)(C)C(=O)N4C[C@@H](C)O[C@H](C)C4)c3)cc([C@H]3CC[C@H](O)CC3)n2n1 [Compound 367] | ≤ 100 nM | ≤ 100 nM
8 | CC(CC(F)F)Nc1ncc2c(-c3ccc(CN4CCN(C)CC4)cc3)cc(C3CCC(O)CC3)n2n1 (stereo not shown) [Compound 352] | ≤ 100 nM | ≤ 100 nM
9 | COC[C@H](C)Nc1ncc2c([C@H]3CCCN(c4ccnc(C)n4)C3)cc([C@H]3CC[C@H](O)CC3)n2n1 [Compound 377] | ≤ 100 nM | 100 to 1000 nM
10 | COC[C@H](C)Nc1ncc2c(-c3ccnc(N4CCS(=O)(=O)CC4)c3)cc([C@H]3CC[C@H](O)CC3)n2n1 [Compound 357] | ≤ 100 nM | ≤ 100 nM
11 | COCC(C)Nc1ncc2c(-c3cnn(C(C)(C)C(=O)N4CCOC(C)(C)C4)c3)cc(C3CCC(O)CC3)n2n1 (stereo not shown) [Compound 366] | ≤ 100 nM | ≤ 100 nM
12 | CC(C)Nc1ncc2c(-c3ccnc(N4CCOCC4)c3)cc([C@H]3CC[C@H](O)CC3)n2n1 [Compound 350] | ≤ 100 nM | ≤ 100 nM
13 | COCC(C)Nc1ncc2c(C3CCN(c4ccnc(C)n4)C3)cc(C3CCC(O)CC3)n2n1 (stereo not shown) [Compound 374] | ≤ 100 nM | ≤ 100 nM
14 | COC[C@H](C)Nc1ncc2c(-c3ccnc(C)c3)cc([C@H]3CC[C@](C)(O)CC3)n2n1 [Compound 391] | ≤ 100 nM | ≤ 100 nM
15 | COC[C@H](C)Nc1ncc2c(-c3cnn(CCC#N)c3)cc([C@H]3CC[C@](C)(O)CC3)n2n1 [Compound 382] | ≤ 100 nM | ≤ 100 nM

The next lines start with the values.

Row | IC50 (TYRO3) | IC50 (AXL) | Structure (SMILES)
16 | ≤ 100 nM | ≤ 100 nM | C[C@@H](COC(F)F)Nc1ncc2c(-c3ccnc(N4CCOCC4)c3)cc([C@H]3CC[C@H](O)CC3)n2n1 [Compound 405]
17 | ≤ 100 nM | 100 to 1000 nM | CC[C@H](C)Nc1ncc2c(-c3cncc(S(C)(=O)=O)c3)cc([C@H]3CC[C@H](O)CC3)n2n1 [Compound 119]
18 | ≤ 100 nM | ≤ 100 nM | CNC(=O)c1cc(-c2cc([C@H]3CC[C@H](O)CC3)n3nc(N[C@@H](C)COC(F)F)ncc23)ccn1 [Compound 411]
19 | ≤ 100 nM | ≤ 100 nM | COC[C@H](C)Nc1ncc2c(-c3ccnc(N[C@@H]4CCOC4)c3)cc([C@H]3CC[C@H](O)CC3)n2n1 [Compound 416]
20 | ≤ 100 nM | ≤ 100 nM | CNC(=O)c1ncc(-c2cc([C@H]3CC[C@H](O)CC3)n3nc(N[C@@H](C)COC(F)F)ncc23)cn1 [Compound 407]
21 | ≤ 100 nM | ≤ 100 nM | COC[C@H](C)Nc1ncc2c(-c3cnn(C[C@@H]4CCC(=O)N4)c3)cc([C@H]3CC[C@H](O)CC3)n2n1 [Compound 368]
22 | ≤ 100 nM | ≤ 100 nM | COC[C@H](C)Nc1ncc2c(-c3ccnc(N4CCOCC4)c3)cc([C@H]3CC[C@H](O)CC3)n2n1 [Compound 355]
23 | ≤ 100 nM | ≤ 100 nM | COC[C@H](C)Nc1ncc2c(-c3ccnc(O[C@@H]4CCNC4)c3)cc([C@H]3CC[C@H](O)CC3)n2n1 [Compound 401]
